Results as given in ChEMBL document CHEMBL3885881, “DrugMatrix”.

Organism: Rattus norvegicus
Assay: DrugMatrix - Regimen: Daily Repeat
Type: toxicity, organism-based, Sprague-Dawley
Design: regimen Daily Repeat, gender Male, age 6-8 weeks
Conditions: in vivo, iv, […], vehicle 100 % SALINE; for MONOCYTE / NEUTROPHIL / NUCLEATED RED BLOOD CELLS / ABSOLUTE BASOPHIL / ABSOLUTE EOSINOPHIL / ABSOLUTE LYMPHOCYTE / ABSOLUTE MONOCYTE / ABSOLUTE SEGMENTED NEUTROPHIL / BASOPHIL / EOSINOPHIL / ERYTHROCYTE COUNT / HEMATOCRIT / HEMOGLOBIN / LEUKOCYTE COUNT / LYMPHOCYTE / MEAN CORPUSCULAR HEMOGLOBIN / MEAN CORPUSCULAR HEMOGLOBIN CONCENTRATION / MEAN CORPUSCULAR VOLUME: tissue Blood; for ALANINE AMINOTRANSFERASE / ALKALINE PHOSPHATASE / ASPARTATE AMINOTRANSFERASE / BLOOD UREA NITROGEN / CARBON DIOXIDE / CHOLESTEROL / CREATINE PHOSPHOKINASE / CREATININE / GLUCOSE / LACTATE DEHYDROGENASE / LIPASE / SODIUM / TOTAL BILIRUBIN / TOTAL PROTEIN / URIC ACID: tissue Plasma
[1] = 72 h, dose 2.7 mg/Kg, dose level High, time 3 day
[2] = 72 h, dose 0.27 mg/Kg, dose level Low, time 3 day
[3] = 120 h, dose 0.27 mg/Kg, dose level Low, time 5 day
[4] = 120 h, dose 2.7 mg/Kg, dose level High, time 5 day

Structure (SMILES): COc1cccc2c1C(=O)c1c(O)c3c(c(O)c1C2=O)C[C@@](O)(C(=O)CO)C[C@@H]3O[C@H]1C[C@H](N)[C@@H](O)[C@H](C)O1 [EPIRUBICIN]
- MONOCYTE [1]: 0.67%
- NEUTROPHIL [1]: 8.67%
- NUCLEATED RED BLOOD CELLS [1]: 0 /100WBC
- ALANINE AMINOTRANSFERASE [2]: 37 u/L
- ALKALINE PHOSPHATASE [2]: 440.33 u/L
- ASPARTATE AMINOTRANSFERASE [2]: 76.33 u/L
- BLOOD UREA NITROGEN [2]: 17 mg/dL
- CARBON DIOXIDE [2]: 25 mmol/L
- CHOLESTEROL [2]: 79.67 mg/dL
- CREATINE PHOSPHOKINASE [2]: 317.67 u/L
- CREATININE [2]: 0.15 mg/dL
- GLUCOSE [2]: 161.33 mg/dL
- LACTATE DEHYDROGENASE [2]: 433 u/L
- LIPASE [2]: 9.33 u/L
- SODIUM [2]: 143.3 MEQ/L
- TOTAL BILIRUBIN [2]: 0.2 mg/dL
- TOTAL PROTEIN [2]: 5.67 G/DL
- URIC ACID [2]: 1.5 mg/dL
- ALANINE AMINOTRANSFERASE [1]: 33 u/L
- ALKALINE PHOSPHATASE [1]: 297.33 u/L
- ASPARTATE AMINOTRANSFERASE [1]: 83.67 u/L
- BLOOD UREA NITROGEN [1]: 13 mg/dL
- CARBON DIOXIDE [1]: 26.33 mmol/L
- CHOLESTEROL [1]: 96.33 mg/dL
- CREATINE PHOSPHOKINASE [1]: 442.33 u/L
- CREATININE [1]: 0.12 mg/dL
- GLUCOSE [1]: 146.33 mg/dL
- LACTATE DEHYDROGENASE [1]: 682.67 u/L
- LIPASE [1]: 10 u/L
- SODIUM [1]: 143.33 MEQ/L
- TOTAL BILIRUBIN [1]: 0.0667 mg/dL
- TOTAL PROTEIN [1]: 5.73 G/DL
- URIC ACID [1]: 1.43 mg/dL
- ABSOLUTE BASOPHIL [3]: 0 CELLS/uL
- ABSOLUTE EOSINOPHIL [3]: 0 CELLS/uL
- ABSOLUTE LYMPHOCYTE [3]: 12433.67 CELLS/uL
- ABSOLUTE MONOCYTE [3]: 229 CELLS/uL
- ABSOLUTE SEGMENTED NEUTROPHIL [3]: 504 CELLS/uL
- BASOPHIL [3]: 0%
- EOSINOPHIL [3]: 0%
- ERYTHROCYTE COUNT [3]: 5.91 x10E6/uL
- HEMATOCRIT [3]: 37.27%
- HEMOGLOBIN [3]: 14.33 G/DL
- LEUKOCYTE COUNT [3]: 13.17 x10E3/uL
- LYMPHOCYTE [3]: 94.33%
- MEAN CORPUSCULAR HEMOGLOBIN [3]: 24.27 pg
- MEAN CORPUSCULAR HEMOGLOBIN CONCENTRATION [3]: 38.5 G/DL
- MEAN CORPUSCULAR VOLUME [3]: 63.07 fL
- MONOCYTE [3]: 1.67%
- NEUTROPHIL [3]: 4%
- NUCLEATED RED BLOOD CELLS [3]: 0 /100WBC
- ABSOLUTE BASOPHIL [4]: 0 CELLS/uL
- ABSOLUTE EOSINOPHIL [4]: 0 CELLS/uL
- ABSOLUTE LYMPHOCYTE [4]: 1316 CELLS/uL
- ABSOLUTE MONOCYTE [4]: 12 CELLS/uL
- ABSOLUTE SEGMENTED NEUTROPHIL [4]: 72 CELLS/uL
- BASOPHIL [4]: 0%
- EOSINOPHIL [4]: 0%
- ERYTHROCYTE COUNT [4]: 6.07 x10E6/uL
- HEMATOCRIT [4]: 37.4%
- HEMOGLOBIN [4]: 15.17 G/DL
- LEUKOCYTE COUNT [4]: 1.4 x10E3/uL
- LYMPHOCYTE [4]: 94%
- MEAN CORPUSCULAR HEMOGLOBIN [4]: 25.13 pg
- MEAN CORPUSCULAR HEMOGLOBIN CONCENTRATION [4]: 40.6 G/DL
- MEAN CORPUSCULAR VOLUME [4]: 61.83 fL
- MONOCYTE [4]: 1%
- NEUTROPHIL [4]: 5%
- NUCLEATED RED BLOOD CELLS [4]: 0 /100WBC
- ALANINE AMINOTRANSFERASE [3]: 57.67 u/L
- ALKALINE PHOSPHATASE [3]: 390.33 u/L
- ASPARTATE AMINOTRANSFERASE [3]: 107.33 u/L
- BLOOD UREA NITROGEN [3]: 16.67 mg/dL
- CARBON DIOXIDE [3]: 25 mmol/L
- CHOLESTEROL [3]: 75 mg/dL
- CREATINE PHOSPHOKINASE [3]: 510.67 u/L
- CREATININE [3]: 0.16 mg/dL
- GLUCOSE [3]: 152 mg/dL
- LACTATE DEHYDROGENASE [3]: 825.67 u/L
- LIPASE [3]: 9 u/L
- SODIUM [3]: 144.37 MEQ/L
- TOTAL BILIRUBIN [3]: 0.17 mg/dL
- TOTAL PROTEIN [3]: 5.9 G/DL
- URIC ACID [3]: 1.63 mg/dL
- ALANINE AMINOTRANSFERASE [4]: 29 u/L
- ALKALINE PHOSPHATASE [4]: 172 u/L
- ASPARTATE AMINOTRANSFERASE [4]: 79.33 u/L
- BLOOD UREA NITROGEN [4]: 20.67 mg/dL
- CARBON DIOXIDE [4]: 28 mmol/L
- CHOLESTEROL [4]: 93 mg/dL
- CREATINE PHOSPHOKINASE [4]: 725.67 u/L
- CREATININE [4]: 0.12 mg/dL
- GLUCOSE [4]: 151.33 mg/dL
- LACTATE DEHYDROGENASE [4]: 374.33 u/L
- LIPASE [4]: 8.67 u/L
- SODIUM [4]: 141.7 MEQ/L
- TOTAL BILIRUBIN [4]: 0.0667 mg/dL
- TOTAL PROTEIN [4]: 5.67 G/DL
- URIC ACID [4]: 1.37 mg/dL
